From article PMC6017564, “Amaryllidaceae Alkaloids as Potential Glycogen Synthase Kinase-3β Inhibitors” (Molecules : A Journal of Synthetic Chemistry and Natural …, 2018)

target: T1, GSK-3β (Homo sapiens, UniProt P49841); assay: Kinase-Glo luminescent kinase assay, single concentration […]; format: biochemical; conditions: read-out: % of Inhibition
T1 construct: gene GSK3B
T1 sequence (P49841 whole entry): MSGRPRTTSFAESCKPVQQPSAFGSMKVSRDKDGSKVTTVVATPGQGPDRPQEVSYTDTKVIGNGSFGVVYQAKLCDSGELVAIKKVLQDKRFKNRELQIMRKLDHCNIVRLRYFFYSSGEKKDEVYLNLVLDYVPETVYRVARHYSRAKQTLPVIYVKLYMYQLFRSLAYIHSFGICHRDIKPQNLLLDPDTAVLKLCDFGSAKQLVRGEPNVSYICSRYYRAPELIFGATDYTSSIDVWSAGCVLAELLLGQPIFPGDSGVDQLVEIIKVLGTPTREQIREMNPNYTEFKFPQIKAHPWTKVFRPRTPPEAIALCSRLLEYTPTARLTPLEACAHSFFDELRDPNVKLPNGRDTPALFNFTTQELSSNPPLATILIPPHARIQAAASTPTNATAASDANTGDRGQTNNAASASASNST

SMILES	inhibition at 50 µM [%]
CN1CCC2=CCC3OC(O)c4cc5c(cc4C3C21)OCO5 (stereo not drawn) [compound 27, Oduline]	57.7
COc1cc2c(cc1OC)[C@H]1[C@H]3C(=CC[C@H]1OC2=O)CCN3C [compound 22, Homolycorine]	54.4
CCOC1OC2CC=C3CCN(C)C3C2c2cc(OC)c(OC)cc21 (stereo not drawn) [compound 26, O-Ethyllycorenine]	57.7
CO[C@@H]1C=C[C@@]23c4cc5c(cc4CN(C[C@@H]2O)[C@H]3C1)OCO5 [compound 3, Haemanthamine]	52.4

target: T1, GSK-3β; assay: biochemical; design: Kinase-Glo luminescent ATP-consumption assay, human recombinant GSK-3beta, GSM peptide substrate, 1 uM ATP, 30 min 37 C; conditions: not given
Description: GSK-3β activity and inhibition were studied according to the luminescent method of Baki et al. using a Kinase-Glo reagent kit. The reaction was performed in 96-well white plates. Each well contained 10 µL of test compound (dissolved in DMSO) at 1 mM concentration and diluted in advance in an assay buffer (pH 7.5) containing 50 mM HEPES, 1 mM EDTA, 1 mM EGTA, and 15 mM magnesium acetate, to the desired concentration, 10 µL of ATP (1 µM final concentration), 10 µL of 100 µM GSM and 10 µL of GSK-3β (20 ng). Ten microliters of either buffer or SB-415286 solution (5 µM final concentration) was added instead of test compound solution in order to obtain the positive (maximum activity) and negative control (total inhibition), respectively. […] The mix was left to react at 37 °C for 30 min. Then the enzymatic reactions were stopped with 40 µL of Kinase-Glo reagent. Glow-type luminescence was recorded after 10 min. The activity is proportional to the difference of the total and consumed ATP. The inhibition activities were calculated on the basis of maximal activity, measured in the absence of inhibitor, and the maximal inhibition was measured in the presence of the reference compound. The IC50 values were calculated using the GraphPad Prism 4.0 program (GraphPad Software Inc., CA, USA). Kinase-Glo Kit was obtained from Promega (Promega Biotech Iberica, S.L., Madrid, Spain), and human recombinant GSK-3β and GSM substrate mimicking Glycogen Muscle Synthase from Merck Millipore (Darmstadt, Germany). Adenosine 5-triphosphate (ATP) disodium salt hydrate, ammonium acetate, ammonium hydroxide, 4-(2-hydroxyethyl)piperazine-1-ethanesulfonic acid (HEPES), ethylene glycol-bis(-aminoethylether)-N,N,N,N-tetraacetic acid tetrasodium salt (EGTA), ethylenediaminetetraacetic acid (EDTA), dimethyl sulfoxide (DMSO), magnesium acetate tetrahydrate, formic acid, and 3-[(3-chloro-4-hydroxyphenyl)amino]-4-(2-nitrophenyl)-1H-pyrrol-2,5-dione were purchased from Sigma-Aldrich (St. Louis, MO, USA). The GSK-3β selective inhibitor SB-415286 ([3-(3-chloro-4-hydroxyphenylamino)-4-(2-nitrophenyl)-1H-pyrrole-2,5-dione]) was purchased from Selleck Chemicals (Houston, TX, USA). Ultrapure water was obtained using a Purite LTD water purification system (Thame, UK). The experiments were carried out using a Victor X3 multimode plate reader (Perkin Elmer, MA, USA). The inhibitory activity of the compounds was first screened at a concentration of 50 µM (Table 1); a synthetic arylindolemaleimide derivative, SB-415286, was used as a positive standard.

SMILES	inhibition at 50 µM [%]
O[C@H]1[C@H]2c3cc4c(cc3CN3CCC(=C[C@@H]1O)[C@H]23)OCO4 [Lycorine (15)]	32.9 ± 0.2
CC(=O)O[C@H]1[C@H]2c3cc4c(cc3CN3CCC(=C[C@@H]1O)[C@H]23)OCO4 [1-O-Acetyllycorine (16)]	49.9 ± 1.9
O[C@H]1C=C[C@@]23c4cc5c(cc4CN(C[C@@H]2O)[C@H]3C1)OCO5 [Hamayne (5)]	33.9 ± 0.1
COc1ccc2c3c1O[C@H]1CC(=O)C=C[C@@]31CCN(C)C2 [Narwedine (12)]	37.7 ± 0.3
CN1CCC2=C[C@H](O)[C@H]3OC(=O)c4cc5c(cc4[C@H]3[C@@H]21)OCO5 [Hippeastrine (21)]	10.7 ± 2.5
O[C@@H]1CC=C2CCN3Cc4cc5c(cc4[C@H]1[C@@H]23)OCO5 [compound 14, Caranine]	61.8 ± 9.2
CO[C@@H]1C=C[C@@]23c4cc5c(cc4CO[C@]2(O)CN(C)[C@H]3C1)OCO5 [Tazettine (20)]	49.2 ± 0.3
COc1c2c(cc3c1OCO3)[C@@]13CCN(C2)[C@@H]1C[C@@H](O)[C@@H]1O[C@@H]13 [Crinamidine (10)]	32.1 ± 7.9
COc1cc2c(cc1OC)[C@@H]1[C@H](O)[C@@H](OC)C=C3CCN(C2)[C@H]31 [Galanthine (17)]	26.4 ± 7.7
COc1cc2c(cc1OC)[C@@H](O)O[C@@H]1CC=C3CCN(C)[C@H]3[C@H]21 [Lycorenine (25)]	47.6 ± 3.5
O[C@H]1C=C[C@@]23CCN(Cc4cc5c(cc42)OCO5)[C@@H]3C1 [Crinine (8)]	39.6 ± 5.4
CN1CCC2=CCC3OC(=O)c4cc5c(cc4C3C21)OCO5 (stereo not drawn) [compound 24, Masonine]	66 ± 4
CO[C@@H]1C=C[C@@]23c4cc5c(cc4[C@H](O)N(C[C@@H]2O)[C@H]3C1)OCO5 [Haemanthidine (4)]	33 ± 2.2
COc1c2c(cc3c1OCO3)[C@@]13CCN(C2)[C@@H]1C[C@@H](OC)[C@@H]1O[C@@H]13 [Undulatine (9)]	43.3 ± 4
COc1c2c(cc3c1OCO3)[C@]13C=C[C@H](OC)C[C@H]1N(C2)C[C@@H]3O [Ambelline (7)]	38 ± 0.8
COc1cc2c(cc1O)CN1CCC3=CC[C@@H](O)[C@@H]2[C@@H]31 [Norpluviine (19)]	45 ± 4.3
COc1cc2c(cc1O)C1C(CC=C3CCN(C)C31)OC2=O (stereo not drawn) [compound 23, 9-O-Demethylhomolycorine]	63.6 ± 1.3

target: T1, GSK-3β; assay: biochemical; conditions: not given; remark: another data set of the same source

SMILES	IC50 [µM]
O[C@@H]1CC=C2CCN3Cc4cc5c(cc4[C@H]1[C@@H]23)OCO5 [compound 14, Caranine]	30.8
CN1CCC2=CCC3OC(=O)c4cc5c(cc4C3C21)OCO5 (stereo not drawn) [compound 24, Masonine]	27.8
COc1cc2c(cc1O)C1C(CC=C3CCN(C)C31)OC2=O (stereo not drawn) [compound 23, 9-O-Demethylhomolycorine]	30
